The subject of the data set is CCRIS mutagenicity, Ames/micronucleus/aberration tests. Put plainly: CCRIS mutagenicity studies.
[1] abbreviates: Test System: AMES SALMONELLA TYPHIMURIUM, Strain/Indicator: TA98, Metabolic Activation: NONE, Method: PREINCUBATION
Where [2] appears, read: Test System: AMES SALMONELLA TYPHIMURIUM, Strain/Indicator: TA100, Metabolic Activation: NONE, Method: PREINCUBATION
Where [3] appears, read: Test System: AMES SALMONELLA TYPHIMURIUM, Strain/Indicator: TA1535, Metabolic Activation: NONE, Method: PREINCUBATION
The mark [4] stands for this setting: Test System: AMES SALMONELLA TYPHIMURIUM, Strain/Indicator: TA1537, Metabolic Activation: NONE, Method: PREINCUBATION
[5] abbreviates: Test System: AMES SALMONELLA TYPHIMURIUM, Strain/Indicator: TA1538, Metabolic Activation: NONE, Method: PREINCUBATION
The mark [6] stands for this setting: Test System: AMES SALMONELLA TYPHIMURIUM, Strain/Indicator: TA97, Metabolic Activation: RAT, LIVER, S-9, AROCLOR 1254, Method: STANDARD PLATE.
Where [7] appears, read: Test System: AMES SALMONELLA TYPHIMURIUM, Strain/Indicator: TA98, Metabolic Activation: NONE, Method: STANDARD PLATE.
Where [8] appears, read: Test System: AMES SALMONELLA TYPHIMURIUM, Strain/Indicator: TA98, Metabolic Activation: RAT, LIVER, S-9, AROCLOR 1254, Method: STANDARD PLATE.
[9] abbreviates: Test System: AMES SALMONELLA TYPHIMURIUM, Strain/Indicator: TA100, Metabolic Activation: NONE, Method: STANDARD PLATE.
Setting [10] is: Test System: AMES SALMONELLA TYPHIMURIUM, Strain/Indicator: TA100, Metabolic Activation: RAT, LIVER, S-9, AROCLOR 1254, Method: STANDARD PLATE.

Experimental findings from PubChem BioAssay AID1259407 (Chemical Carcinogenesis Research Information System (CCRIS), 2018) are described below.

SMILES strings stand for the structures. Active and inactive are the calls of the source. No rule for the calls is given here.

`O=NN1CN2CN(C1)CN(N=O)C2`: the mutagenic call (End Point: IN VITRO CHROMOSOMAL ABERRATIONS, Test System: CHL CELLS, Metabolic Activation: RAT, LIVER, S-9, SODIUM PHENOBARBITAL AND 5,6-BENZOFLAVONE) was “active; positive (structural and ploidy changes)”; the mutagenic call under setting [1] is “inactive; negative”; the mutagenic call (Test System: AMES SALMONELLA TYPHIMURIUM, Strain/Indicator: TA98, Metabolic Activation: RAT LIVER S-9, PHENOBARBITAL AND BETA-NAPHTHOFLAVONE, Method: PREINCUBATION) is “inactive; negative”; the mutagenic call under setting [2] was “active; positive”; the mutagenic call (Test System: AMES SALMONELLA TYPHIMURIUM, Strain/Indicator: TA100, Metabolic Activation: RAT LIVER S-9, PHENOBARBITAL AND BETA-NAPHTHOFLAVONE, Method: PREINCUBATION) is “active; positive”; the mutagenic call under setting [3] is “inactive; negative”. The mutagenic call reads like this: (Test System: AMES SALMONELLA TYPHIMURIUM, Strain/Indicator: TA1535, Metabolic Activation: RAT LIVER S-9, PHENOBARBITAL AND BETA-NAPHTHOFLAVONE, Method: PREINCUBATION) “inactive; negative”; under setting [4], “inactive; negative”; (Test System: AMES SALMONELLA TYPHIMURIUM, Strain/Indicator: TA1537, Metabolic Activation: RAT LIVER S-9, PHENOBARBITAL AND BETA-NAPHTHOFLAVONE, Method: PREINCUBATION) “inactive; negative”; under setting [5], “inactive; negative”; (Test System: AMES SALMONELLA TYPHIMURIUM, Strain/Indicator: TA1538, Metabolic Activation: RAT LIVER S-9, PHENOBARBITAL AND BETA-NAPHTHOFLAVONE, Method: PREINCUBATION) “inactive; negative”; (Test System: E.COLI, Strain/Indicator: WP2UVRA, Metabolic Activation: NONE, Method: PREINCUBATION) “inactive; negative”. The mutagenic call (Test System: E.COLI, Strain/Indicator: WP2UVRA, Metabolic Activation: RAT LIVER S-9, PHENOBARBITAL AND BETA-NAPHTHOFLAVONE, Method: PREINCUBATION) was “active; positive”.
With `O=S(=O)(c1cc(Cl)cc(Cl)c1O)c1cc(Cl)cc(Cl)c1O`, the mutagenic call by setting is: (Test System: AMES SALMONELLA TYPHIMURIUM, Strain/Indicator: TA97, Metabolic Activation: NONE, Method: STANDARD PLATE) “inactive; negative”; under setting [6], “inactive; negative”; under setting [7], “inactive; negative”; under setting [8], “inactive; negative”; under setting [9], “inactive; negative”; under setting [10], “inactive; negative”. Further, the mutagenic call reads like this: (Test System: AMES SALMONELLA TYPHIMURIUM, Strain/Indicator: TA102, Metabolic Activation: NONE, Method: STANDARD PLATE) “inactive; negative”; (Test System: AMES SALMONELLA TYPHIMURIUM, Strain/Indicator: TA102, Metabolic Activation: RAT, LIVER, S-9, AROCLOR 1254, Method: STANDARD PLATE) “inactive; negative”.
With `Cc1ccc2nc3n(C)c4ccccc4c(C)c-3c2c1`, the mutagenic call runs as follows: under setting [6], “active; positive”; under setting [8], “active; positive”.
As to `c1ccc2c(c1)ccc1c3ccccc3sc21`, where the note is “Test System: AMES SALMONELLA TYPHIMURIUM, Strain/Indicator: TA100, Metabolic Activation: RAT, LIVER, S-9, AROCLOR 1254, Method: PREINCUBATION”, the mutagenic call was “active; positive”.
Turning to `CC(=O)N(Cl)c1ccc2c(c1)Cc1ccccc1-2`, the mutagenic call under setting [8] was “active; positive”.
As for `CCc1ccccc1N`, the mutagenic call by setting is: under setting [1], “inactive; negative”; (Test System: AMES SALMONELLA TYPHIMURIUM, Strain/Indicator: TA98, Metabolic Activation: S-9, Method: PREINCUBATION) “inactive; negative”; under setting [2], “inactive; negative”; (Test System: AMES SALMONELLA TYPHIMURIUM, Strain/Indicator: TA100, Metabolic Activation: S-9, Method: PREINCUBATION) “inactive; negative”; (Test System: UDS RODENT HEPATOCYTES, Strain/Indicator: THY INCORP (NON-S-PHASE), Metabolic Activation: NONE, Method: AUTORADIOGRAPHY) “inactive; negative”.
Turning to `O=C1C=Cc2c(ccc3cc4ccccc4cc23)C1=O`, the mutagenic call (Test System: AMES SALMONELLA TYPHIMURIUM, Strain/Indicator: TA97A, Metabolic Activation: NONE, Method: PREINCUBATION) was “inactive; negative”; the mutagenic call under setting [1] is “inactive; negative”; the mutagenic call under setting [2] was “inactive; negative”; the mutagenic call (Test System: AMES SALMONELLA TYPHIMURIUM, Strain/Indicator: TA102, Metabolic Activation: NONE, Method: PREINCUBATION) is “inactive; negative”; the mutagenic call (Test System: AMES SALMONELLA TYPHIMURIUM, Strain/Indicator: TA104, Metabolic Activation: NONE, Method: PREINCUBATION) is “inactive; negative”.
As for `CC(=O)ON(C(C)=O)c1ccc(Oc2ccccc2)cc1`, the mutagenic call (Test System: AMES SALMONELLA TYPHIMURIUM, Strain/Indicator: TA100, Metabolic Activation: GUINEA PIG, LIVER, S-9, KANECLOR 500, Method: STANDARD PLATE) was “active; positive”.
`Cc1oc(=O)oc1COC(=O)[C@@H]1N2C(=O)[C@@H](NC(=O)[C@H](N)c3ccccc3)[C@H]2SC1(C)C`: the mutagenic call under setting [1] is “inactive; negative”; the mutagenic call (Test System: AMES SALMONELLA TYPHIMURIUM, Strain/Indicator: TA98, Metabolic Activation: RAT, LIVER, S-9, PHENOBARBITAL AND 5,6-BENZOFLAVONE, Method: PREINCUBATION) is “inactive; negative”; the mutagenic call under setting [2] is “inactive; negative”; the mutagenic call (Test System: AMES SALMONELLA TYPHIMURIUM, Strain/Indicator: TA100, Metabolic Activation: RAT, LIVER, S-9, PHENOBARBITAL AND 5,6-BENZOFLAVONE, Method: PREINCUBATION) is “inactive; negative”; the mutagenic call under setting [3] was “inactive; negative”; the mutagenic call (Test System: AMES SALMONELLA TYPHIMURIUM, Strain/Indicator: TA1535, Metabolic Activation: RAT, LIVER, S-9, PHENOBARBITAL AND 5,6-BENZOFLAVONE, Method: PREINCUBATION) is “inactive; negative”. Also, the mutagenic call was “inactive; negative” under setting [4]; “inactive; negative” (Test System: AMES SALMONELLA TYPHIMURIUM, Strain/Indicator: TA1537, Metabolic Activation: RAT, LIVER, S-9, PHENOBARBITAL AND 5,6-BENZOFLAVONE, Method: PREINCUBATION); “inactive; negative” under setting [5]; “inactive; negative” (Test System: AMES SALMONELLA TYPHIMURIUM, Strain/Indicator: TA1538, Metabolic Activation: RAT, LIVER, S-9, PHENOBARBITAL AND 5,6-BENZOFLAVONE, Method: PREINCUBATION); “inactive; negative” (Test System: E. COLI, Strain/Indicator: WP2 UVRA, Metabolic Activation: NONE, Method: PREINCUBATION); “inactive; negative” (Test System: E. COLI, Strain/Indicator: WP2 UVRA, Metabolic Activation: RAT, LIVER, S-9, AROCLOR 1254, Method: PREINCUBATION).
As for `S=C([S-])NCCNC(=S)[S-].[Zn+2]`, the mutagenic call by setting is: under setting [7], “inactive; negative”; under setting [8], “inactive; negative”; under setting [9], “inactive; negative”; under setting [10], “inactive; negative”; (Test System: AMES SALMONELLA TYPHIMURIUM, Strain/Indicator: TA1535, Metabolic Activation: NONE, Method: STANDARD PLATE) “inactive; negative”; (Test System: AMES SALMONELLA TYPHIMURIUM, Strain/Indicator: TA1535, Metabolic Activation: RAT, LIVER, S-9, AROCLOR 1254, Method: STANDARD PLATE) “inactive; negative”. In addition, the mutagenic call was “inactive; negative” (Test System: AMES SALMONELLA TYPHIMURIUM, Strain/Indicator: TA1537, Metabolic Activation: NONE, Method: STANDARD PLATE); “inactive; negative” (Test System: AMES SALMONELLA TYPHIMURIUM, Strain/Indicator: TA1537, Metabolic Activation: RAT, LIVER, S-9, AROCLOR 1254, Method: STANDARD PLATE); “inactive; negative” (Test System: E. COLI, Strain/Indicator: WP2, Metabolic Activation: NONE, Method: STANDARD PLATE); “inactive; negative” (Test System: E. COLI, Strain/Indicator: WP2, Metabolic Activation: RAT, LIVER, S-9, AROCLOR 1254, Method: STANDARD PLATE).
